Data published in patent publication US20070213408A1, “Use of Acetyl L-Carnitine for the Preparation of a Medicine for the Treatment of Neuropathic Pain in Diabetic Patients” (SIGMA-TAU INDUSTRIE FARMACEUTICHE RIUNITE S.P.A., priority 2004, published 2007).

Experiments:
[1] = tested on: patients with diabetic neuropathy; details: approximately 200 patients with diabetic neuropathy; cited from earlier work
[2] = tested on: patients with diabetic neuropathy; details: 120 patients with diabetic neuropathy; cited from earlier work
[3] = tested on: Patients with type 2 diabetes not on insulin treatment; assay: Double-blind placebo-controlled clinical trials in diabetic peripheral neuropathy, VAS pain assessment, patients not on insulin; type: in vivo, human; details: for VAS: 52 weeks
Procedure: (§1) Two double-blind placebo-controlled clinical trials, identical in their experimental design, were conducted in patients with diagnoses of diabetic peripheral neuropathy selected according to the criteria established in the San Antonio, Tex. conference (Diabetes 37:1000-1004, 1988).
(§2) Acetyl L-carnitine was administered orally at doses of 1.5 g/day and 3.0 g/day for continuously for 52 weeks.
(§3) One objective of the studies consisted in the possible modification of the Visual Analogue Scale (VAS) (Scott J. Huskisson EC. Graphic representation of pain. Pain 1976;2:175-184) in the subjective assessment of pain symptoms and the main sensorimotor clinical parameters.

[4] = tested on: Patients with type 2 diabetes on insulin treatment; assay: Double-blind placebo-controlled clinical trials in diabetic peripheral neuropathy, VAS pain assessment, patients on insulin; type: in vivo, human; details: 52 weeks
Procedure: as §1, §2, §3
The second population comprised patients with type 2 diabetes treated with insulin. Here, too, the population included a placebo group (Group 4) matching up to the same inclusion criteria as the patients treated with acetyl L-carnitine (on insulin treatment).

[5] = tested on: type I and II diabetics with symmetrical distal polyneuropathy or multineuropathy; details: treated patients out of 333 recruited; cited from earlier work

## CC(=O)O[C@H](CC(=O)[O-])C[N+](C)(C)C [Acetyl L-carnitine, acetyl L-carnitine]
[1]
  difference between acetyl L-carnitine and placebo: failed to show any significant difference
[2]
  improvement in symptoms: distinct improvement in symptoms
[3]; 1.5 g/day orally, n = 39 pts
  VAS: 7.6 ± 34.7
[3]; 3.0 g/day orally, n = 40 pts
  VAS: 24.2 ± 32.3
[3]; end of treatment, active only at higher dose (3 g/day)
  activity compared to the placebo group: active in a dose-related manner
[4]; 1.5 g/die orally, n = 41 pts
  VAS: 16.8 ± 30.1
[4]; 3.0 g/day orally, n = 57 pts
  VAS: 25.9 ± 31.2
[5]
  patients presenting an improvement in pain symptoms: 39%
